Results on eight molecules are retold here after patent US20150329864A1, “DESIGN OF OLIGONUCLEOTIDE ANALOGS AS THERAPEUTIC AGENTS” (SPRING BANK PHARMACEUTICALS, INC., priority 2010, published 2015).

Structures are written as SMILES. Some results are limits rather than exact numbers.

Data set [1] concerns HCV. As to the kind of experiment: Combination studies against HCV in replicon assays. The class given is cell-based. As to conditions: Hepatitis C virus; monotherapy; read-out: EC50 (uM), single drug. In general terms: In antiviral work, replicon cells carry a viral genome segment that copies itself.
For data set [2], the system named is hepatitis B virus (HBV). As to the kind of experiment: Effect of i.p. administration on hepatitis B virus in transgenic mice. The class given is in vivo. On the procedure: Compound 5 was evaluated in transgenic mice expressing hepatitis B virus (HBV). […] Its activity was also similar to the adefovir dipivoxil (ADV) anti-HBV activity; however, the two compounds seemed to suppress different HBV DNA species. […] In contrast, Compound 5 appeared to indiscriminately remose all HBV DNA species, including the bands typically left by ADV, which may reflect a different mechanism of action other than classical chain termination. Serum HBe, liver HBs, and HBc were not affected by Compound 5 treatment, which is consistent in transgenic mice with compounds that block viral synthesis “downstream” from mRNA synthesis, such as blockage of polymerase activities. A minimal effective dosage was determined to be between 1.6-0.5 mg/kg/day, which was similar to ADV minimal effective dosage of 1.0 mg/kg/day (Table 8).

For data set [3], the system named is HBV-3TC-R4 LMMV. The data set is classed as cell-based. As to conditions: Hepatitis B virus.
Data set [4] has as its system HBV WT. As to the kind of experiment: HepG2.2.15 cell-based HBV assay, wild type. As to conditions: Hepatitis B virus, HBV WT, 9 daily doses; for EC50: read-out: EC50; for EC90: read-out: EC90. The procedure: Selected compounds were evaluated in in vitro cell-based HepG2.2.15 HBV assay.
Antiviral analysis. For the antiviral analyses, confluent cultures of 2.2.1.5 cells were maintained on 96-well flat-bottomed tissue culture plates in RPMI1640 medium with 2% fetal bovine serum. Cultures (6 per each test concentration on two replicate plates) were treated with 9 consecutive daily doses of the test compounds. Medium was changed daily with fresh test compounds. HBV nucleic acid and protein levels were measured 24 hours after the last treatment. Extracellular (virion) HBV DNA levels were assessed by quantitative blot hybridization. Intracellular HBV DNA levels were measured by quantitative Southern blot hybridization.
The uptake of neutral red dye was used to determine the relative level of toxicity 24 hours following the last treatment. The absorbance of internalized dye at […] (A510) was used for the semi-quantitative analysis. Values are presented as a percentage of the average A510 values (±standard deviations) in 9 separate cultures of untreated cells maintained on the 96-well plates seeded at the same time with the identical pool of stock cells used for the antiviral analyses and maintained in an identical manner. A total of 3 cultures were treated with each concentration of the test compound.

Data set [5] deals with human hepatitis B virus. As to the kind of experiment: Anti-HBV activity in the HBV transgenic mouse model, oral administration. The data set is classed as in vivo, transgenic mice. Conditions: p.o., qd × 14 d.
Data set [6] deals with human hepatitis B virus. The description is as above. The data set is classed as in vivo, transgenic mice. As to conditions: 10 mg/kg/d, oral, once daily 14 days. On the procedure:
Compound 6k was evaluated for anti-HBV activity in the transgenic mouse model of HBV infection. Male transgenic mouse infected with HBV, with age ranging from 78 to 108 days were used. Compound 6k was initially evaluated at a single dose of 300 mg/kg, administered daily for 14 days by oral gavage. The compounds were administered in citric acid and adefovir dipivoxil was used as a positive control. A control group which received vehicle was used a negative control. Following the treatment, mice were sacrificed and liver tissue analyzed for HBV DNA using Southern blot analysis. The data was statistically evaluated using Kruskall-Wallis non-parametric ANOVA.
(a) Male and female transgenic mice (founder 1.3.32) were infected with human hepatitis B virus. Following infection, animals were orally administered Compound 6k, or a placebo of 0.05 M citric acid, pH 2.0 once daily for 14 days. Dosage was 300 mg/kg/d for Compound 6k. The positive control, ADV, was administered at 10 mg/kg/d.
Male and female transgenic mice (founder 1.3.32) were infected with human hepatitis B virus. Following infection, animals were orally administered Compound 6k, or a placebo of 0.05 M citric add, pH 2.0 once daily for 14 days. Dosages were 100, 10.5 and 1 mg/kg/d for Compound 6K. The positive control, ADV, was administered at 10 mg/kg/d.

The target in data set [7] is T1, RIG-I (Homo sapiens, UniProt O95786).
T1 sequence (O95786 1-925): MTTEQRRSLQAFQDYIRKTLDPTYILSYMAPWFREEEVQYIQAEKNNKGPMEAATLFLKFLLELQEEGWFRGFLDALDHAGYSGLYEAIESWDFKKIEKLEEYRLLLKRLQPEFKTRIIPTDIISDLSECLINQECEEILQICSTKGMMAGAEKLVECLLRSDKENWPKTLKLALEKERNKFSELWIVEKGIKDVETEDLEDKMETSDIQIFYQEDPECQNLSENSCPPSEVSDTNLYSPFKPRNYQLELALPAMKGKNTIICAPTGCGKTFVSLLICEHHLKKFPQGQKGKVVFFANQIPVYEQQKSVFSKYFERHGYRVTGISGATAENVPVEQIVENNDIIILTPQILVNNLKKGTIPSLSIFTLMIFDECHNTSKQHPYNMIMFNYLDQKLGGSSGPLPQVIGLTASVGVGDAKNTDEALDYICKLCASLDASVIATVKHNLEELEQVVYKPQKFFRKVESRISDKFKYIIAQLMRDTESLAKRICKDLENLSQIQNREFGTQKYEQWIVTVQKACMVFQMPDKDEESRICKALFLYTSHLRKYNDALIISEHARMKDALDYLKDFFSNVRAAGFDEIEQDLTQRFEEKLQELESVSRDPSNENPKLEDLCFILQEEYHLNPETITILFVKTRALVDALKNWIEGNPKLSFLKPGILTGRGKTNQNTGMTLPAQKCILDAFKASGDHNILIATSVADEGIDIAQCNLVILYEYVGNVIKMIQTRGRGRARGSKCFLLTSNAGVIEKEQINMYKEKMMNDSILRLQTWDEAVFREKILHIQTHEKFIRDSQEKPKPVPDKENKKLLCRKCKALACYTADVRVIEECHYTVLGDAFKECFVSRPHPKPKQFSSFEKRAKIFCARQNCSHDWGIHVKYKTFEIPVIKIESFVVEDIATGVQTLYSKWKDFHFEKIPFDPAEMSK
As to the kind of experiment: RIG-I translocation on dsRNA, single-molecule PIFE assay. The class given is biochemical. As to conditions: PIFE assay. On the procedure: An in vitro single-molecule fluorescence assay termed PIFE (protein induced fluorescence enhancement) was employed to monitor such movement (Myong, S. et al., Science, 323, 1070, 2009).
For quantitation of RIG-I translocation, Single molecule PIFE yields were estimated. Single molecule PIFE yields are obtained from several hundred molecules simultaneously, allowing statistically reliable data collection.
The translocation as above was carried out using different concentrations of nucleotide compound.
A standard dsRNA (25 bp) was used as a main substrate for RIG-I translocation assay. […] The ratio between rapid (stimulated) translocation and slow translocation would be accounted for in the estimation of compound strength. In order to quantify the affinity of the compound to RIG-I or to RNA substrate, various concentrations of the compound (1-100 μM range) were used in the assay. This enabled the calculation of the association/dissociation constant for each compound, which was a useful measure to apply in cell-based evaluation of compound potency.
The same translocation assay was used on dsRNA, which contains […] moiety with and without the compound.

A short description of data set [8]: Cytotoxicity by neutral red dye uptake in HCV replicon cultures. The data set is classed as cell-based. Conditions: human, AVA5 HCV replicon cell line (sub-genomic CON1, genotype 1b); single drug, Table 9; read-out: CC50. On the procedure:
Antiviral activity against HCV was assessed in a 3-day assay (Okuse, et al., 2005; Antiviral. Res. 65:23; Korba, et al., 2008, Antiviral Res. 77:56) using the stably-expressing HCV replicon cell line, AVA5 (sub-genomic (CON1), genotype 1b) (Blight, et al., 2000; Science 290:1972) maintained as sub-confluent cultures on 96-well plates. Antiviral activity was determined by blot hybridization analysis of intracellular HCV RNA (normalized to the level of cellular B-actin RNA in each culture sample). Cytotoxicity was assessed by neutral red dye uptake in cultures maintained in parallel plates.
EC50, EC90, and CC50 values were calculated by linear regression analysis (MS EXCEL®, QuattroPro®) using data combined from all treated cultures Korba & Gerin, 1992, Antivir. Res. 19:55; Okuse, et al., 2005, Antivir. Res. 65:23). […]
Combination treatments are conducted as previously described. Briefly, two agents were mixed together at a pre-determined concentration ratio. […] Analysis of drug interactions in the combination studies was determined by the use of the CALCUSYN program (Biosoft, Inc., Cambridge, United Kingdom). […]

For the molecule `CC(C)[C@H](N)C(=O)O[C@@H]1[C@@H](CO)O[C@@H](n2ccc(N)nc2=O)[C@]1(C)O` [2C MeCyt (NM 283)], in data set [1], the 50% effective concentration (EC50) was 1.4 µM.
For the molecule `CC(C)(C)C(=O)OCOP(=O)(COCCn1cnc2c(N)ncnc21)OCOC(=O)C(C)(C)C` [ADV, adefovir dipivoxil, reference compound], in data set [2] (10 mg/kg/d, once daily 14 days), the “Liver HBV DNA (mean pg viral/μg cellular DNA ± stdev)” value is listed as 2.7 ± 1.4 (9) pg viral/μg cellular DNA and the “Serum HBV DNA (mean log10 genome equivalents/mL serum ± stdev)” value is reported as 4.9 ± 0.4 (9) log10 genome equivalents/mL serum. The same molecule came in with a minimal effective dosage in data set [2] (HBV transgenic mice) of 1.0 mg/kg/day. Further, in data set [3], the concentration giving a half-maximal response (EC50) turned out to be 2200 nM and the EC90 came out at 8300 nM. In data set [4], the 50% effective concentration (EC50) turned out to be 1500 nM and the EC90 was determined as 7000 nM. For the same molecule, the “Liver HBV DNA Southern blot (pg/μg mean ± sd)” value in data set [5] (0.032 mg/kg/d) is 8.3 ± 11.3 (3) pg/μg. In data set [5] (0.10 mg/kg/d), the “Liver HBV DNA Southern blot (pg/μg mean ± sd)” value is 15.6 ± 13.7 (4) pg/μg. Moreover, in data set [6], the “Liver HBV RNA (log transcripts ± sd)” value turned out to be 10.5 ± 0.4 log transcripts, the “QPCR Liver HBV DNA (pg/μg mean ± sd)” value amounted to 1.7 ± 1.1 pg/µg and the “Southern blot Liver HBV DNA (pg/μg mean ± sd)” value was 0.9 ± 1.1 pg/µg.
In data set [3], `Nc1ccn([C@@H]2CS[C@H](CO)O2)c(=O)n1` [Compound 3TC, Lamivudine] displayed an EC50 greater than 100000 nM and a concentration for an effect of 90% (EC90) greater than 100000 nM. In data set [4], the concentration for a half-maximal effect (EC50) came to 200 nM and the EC90 was 700 nM.
On to `NC(=O)c1ncn([C@@H]2O[C@H](CO)[C@@H](O)[C@H]2O)n1` [Ribavirin], for which, in data set [1], the concentration for a half-maximal effect (EC50) is greater than 30 µM.
On to `CO[C@H]1C(OP(=O)(O)OC[C@H]2O[C@@H](n3cnc4c(N)ncnc43)CC2O)[C@@H](CO)O[C@H]1n1ccc(=O)[nH]c1=O` (some centres unmarked) [SB 70], for which the “RIG-I translocation on dsRNA (activity in words)” value in data set [7] is listed as “varying degrees of RIG-I translocation”.
`CO[C@H]1C(OP(=O)(O)OC[C@H]2O[C@@H](n3cnc4c(N)ncnc43)CC2O)[C@@H](COP(=O)(O)OP(=O)(O)OP(=O)(O)O)O[C@H]1n1ccc(=O)[nH]c1=O` (some centres unmarked) [SB 80]: the “RIG-I translocation on dsRNA (activity in words)” value in data set [7] is reported as “varying degrees of RIG-I translocation”.
Same read-out and setting: as for `Nc1ncnc2c1ccn2[C@H]1CC(OP(=O)(O)OC[C@H]2O[C@@H](n3cnc4c(N)ncnc43)CC2O)[C@@H](COP(=O)(O)OP(=O)(O)OP(=O)(O)O)O1` (some centres unmarked) [SB 90], the entry is “varying degrees of RIG-I translocation”.
With `CCC[C@H](NC(=O)[C@@H]1[C@H]2CCC[C@H]2CN1C(=O)[C@@H](NC(=O)[C@@H](NC(=O)c1cnccn1)C1CCCCC1)C(C)(C)C)C(=O)C(=O)NC1CC1` [Vertex (telaprevir), telaprevir, reference compound], in data set [1], the half-maximal effective concentration (EC50) was found to be 0.25 µM. Besides, the CC50 at 3 day in data set [8] is less than 80000 nM.

What is called EC50 is the concentration needed to bring the measured effect to its halfway point. One may read the EC90 as the point of the concentration-response curve where the effect stands at 90%. As usually defined, the CC50 is the concentration at which the toxic effect on the cells reaches its halfway point.
